These results are taken from US9181259B2 (LEO PHARMA A/S, priority 2012, dated 2015).

Entries after “also recorded” stand apart in the source; their conditions may differ.

The target in series [1] is T1, NK1 receptor (Homo sapiens, UniProt P25103).
T1 construct: Measurement of NK1 Receptor Mediated Intracellular [Ca^2+]; Mobilization in U251 MG Cells Using FLIPR; endogenous in cells; host or cells: U251 MG cells
In words: NK1 receptor mediated intracellular [Ca2+] mobilization in U251 MG cells using FLIPR. The format is cell-based. The following applies: antagonist potency against Substance P (EC80), normalized to 100 nM Aprepitant, read-out: U251MG (FLIPR pIC50) (converted). The essentials:
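Fluo-4-loaded U251 MG cells were preincubated with compound (0.5% DMSO final), with any agonist effect read for 5 min, then 10 min more at 37 °C before Substance P at EC80. Peak FLIPR fluorescence change was read, and IC50 came from a four-parameter fit as the midpoint between fitted top and bottom.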

Series [2] can be described thus: Hepatic intrinsic clearance following incubation in human liver microsomes. The following applies: NADPH regenerating system, 0-30 min, 37 °C. The format is in vitro ADME. The essentials:
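Compounds (from 50 µM working solution) are incubated with human liver microsomes diluted to 0.55 mg/mL in phosphate pH 7.4, with NADPH regeneration at 37 °C and sampling at 0–30 min. LC-MS/MS parent depletion gives kobs, scaled to mL/min/g liver. Eh uses 25.7 g liver/kg and 20.7 mL/min/kg blood flow.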

Series [3] concerns the target T2, NK-1 receptor (Meriones unguiculatus, UniProt Q5DUB1).
T2 construct: animals (male Mongolian gerbils) were shaved on the rostral part of the back; from tissue; host or cells: living male Mongolian gerbils (skin, topical application; in vivo)
In words: Gerbil scratching model (scratching induced by NK-1 agonist GR73632). It counts as in vivo, Mongolian gerbil. The following applies: for attenuation of scratching induced in gerbils by the NK-1 selective agonist GR73632: topical application 1% w/v (20 μL) 20 min before i.d. GR73632 100 nmol/100 μL, male Mongolian gerbils. On the procedure:
The gerbil was selected for this study as this species shares higher homology to the human in terms of NK-1 receptor pharmacology compared to other laboratory rodents.
Each test compound was tested on 11 or 12 animals. On the day of the test, the gerbils (four animals simultaneously) were put into a Plexiglas cage (42×42×35 cm) composed of four cells (20.5×20.5×35 cm) for 10 minutes of habituation. After this period, the test compound (1% w/v in acetone and transcutol 9:1) was topically applied on the shaven area in a volume of 20 μL. Topical application was performed using a Hamilton syringe (25 μL) and a square stencil of impermeable paper (1.5×1.5 cm) to allow application over a defined skin area (2.25 cm2). […] I.d. injection was made with a Hamilton syringe (250 μL) connected to a 27 gauge needle. Immediately after injection, animals were placed back into the same cell of the Plexiglas cage they were previously habituated in and their behaviour was recorded on video remotely for 30 minutes. The experimenter remained out of the observation room in order to minimize disturbance to the animals. The video was subsequently analysed to assess scratching behaviour. Scratching of the injection site by the hind paws was counted while scratching of other sites such as ears and snout were disregarded. Scratching episodes were measured over 10-minutes time intervals, for a total of 30 minutes.
Results were expressed as mean value±SEM. Statistical analysis was performed by a one-way ANOVA followed by LSD post hoc test with the exception of time-course analysis for a repeated-measure ANOVA followed by LSD post hoc test was performed.

T2 sequence (Q5DUB1 whole entry): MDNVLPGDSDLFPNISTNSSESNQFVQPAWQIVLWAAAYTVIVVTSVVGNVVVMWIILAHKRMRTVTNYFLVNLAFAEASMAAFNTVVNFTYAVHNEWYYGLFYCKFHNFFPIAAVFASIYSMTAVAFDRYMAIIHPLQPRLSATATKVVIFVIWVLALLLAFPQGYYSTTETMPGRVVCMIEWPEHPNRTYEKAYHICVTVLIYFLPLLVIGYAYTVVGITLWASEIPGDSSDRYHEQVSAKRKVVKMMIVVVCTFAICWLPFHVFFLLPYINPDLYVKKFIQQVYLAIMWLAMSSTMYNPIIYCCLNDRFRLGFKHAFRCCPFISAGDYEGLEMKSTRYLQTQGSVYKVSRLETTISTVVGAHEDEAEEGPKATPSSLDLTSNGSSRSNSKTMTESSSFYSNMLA
T1 sequence (P25103 whole entry): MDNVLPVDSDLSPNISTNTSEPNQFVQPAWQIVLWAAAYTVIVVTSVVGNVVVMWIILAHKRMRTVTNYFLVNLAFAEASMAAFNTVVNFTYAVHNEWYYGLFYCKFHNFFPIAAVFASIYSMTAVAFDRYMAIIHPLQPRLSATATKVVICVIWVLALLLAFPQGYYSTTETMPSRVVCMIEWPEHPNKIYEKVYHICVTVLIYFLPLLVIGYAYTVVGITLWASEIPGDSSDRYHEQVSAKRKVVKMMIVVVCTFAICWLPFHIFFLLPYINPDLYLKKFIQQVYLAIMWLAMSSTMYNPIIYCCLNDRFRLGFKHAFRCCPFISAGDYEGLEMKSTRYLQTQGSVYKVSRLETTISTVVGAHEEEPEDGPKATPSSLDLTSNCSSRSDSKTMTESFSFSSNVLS

`Cc1ccccc1C1C2CC(CO)C(=O)N2CCN1C(=O)N(C)[C@H](C)c1cc(C(F)(F)F)cc(C(F)(F)F)c1` (single isomer, unassigned) [Compound 55]: the IC50 in series [1] was 0.151 nM. Moreover, the “Human in vitro Clint (mL/min/g liver)” value in series [2] is reported as 2.4 mL/min/g liver. In addition, the “attenuation of scratching induced in gerbils by the NK-1 selective agonist GR73632” value in series [3] is on record as “not able to attenuate the scratching”.

As to `Cc1ccccc1[C@H]1[C@@H]2CCC(=O)N2CCN1C(=O)N(C)[C@H](C)c1cc(C(F)(F)F)cc(C(F)(F)F)c1` (single isomer, unassigned) [Compound 9], the IC50 in series [1] was 0.0347 nM. Also, the “Human in vitro Clint (mL/min/g liver)” value in series [2] stood at 4.5 mL/min/g liver. In series [3], the “attenuation of scratching induced in gerbils by the NK-1 selective agonist GR73632” value is given as “able to attenuate the scratching”.

Consider `Cc1ccccc1C1C2CC(CCO)(CCO)CN2CCN1C(=O)N(C)[C@H](C)c1cc(C(F)(F)F)cc(C(F)(F)F)c1` (single isomer, unassigned) [Compound 60], for which the IC50 in series [1] was 0.339 nM. Moreover, the “Human in vitro Clint (mL/min/g liver)” value in series [2] is given as 6.1 mL/min/g liver. In addition, in series [3], the “attenuation of scratching induced in gerbils by the NK-1 selective agonist GR73632” value is on record as “able to attenuate the scratching”.

With `Cc1ccccc1C1C2CC(CCO)(CCO)C(=O)N2CCN1C(=O)N(C)[C@H](C)c1cc(C(F)(F)F)cc(C(F)(F)F)c1` (single isomer, unassigned) [Compound 54], the IC50 in series [1] is 0.12 nM. The “Human in vitro Clint (mL/min/g liver)” value in series [2] stood at 9.5 mL/min/g liver. For the same molecule, in series [3], the “attenuation of scratching induced in gerbils by the NK-1 selective agonist GR73632” value is “able to attenuate the scratching”.

With “5-Aminopentanoyl-L-phenylalanyl-L-phenylalanyl-L-prolyl-L-(N-methyl)leucyl-L-methioninamide [GR73632, reference compound]”, in series [3] (intradermal injection 100 nmol/100 μL, 30 min time course, repeated-measure ANOVA, gerbil), the “induction of scratching (number of scratches)” value was “induced an increase in the number of scratches; also recorded: induced an increase of scratching”.

Turning to `Cc1ccccc1C1C2CC(CCO)(CCO)C(=O)N2CCN1C(=O)N(C)Cc1cc(C(F)(F)F)cc(C(F)(F)F)c1` (single isomer, unassigned) [Compound 44, N-{[3,5-bis(trifluoromethyl)phenyl]methyl}-7,7-bis(2-hydroxyethyl)-N-methyl-1-(2-methylphenyl)-6-oxo-octahydropyrrolo[1,2-a]piperazine-2-carboxamide], in series [1], the IC50 is 0.0692 nM. For the same molecule, the “Human in vitro Clint (mL/min/g liver)” value in series [2] came out at 2.6 mL/min/g liver. Also, the “attenuation of scratching induced in gerbils by the NK-1 selective agonist GR73632” value in series [3] is on record as “able to attenuate the scratching”.

Regarding `Cc1ccccc1C1C2CC(CN3CCOCC3)C(=O)N2CCN1C(=O)N(C)Cc1cc(C(F)(F)F)cc(C(F)(F)F)c1` (single isomer, unassigned) [Compound 38], the IC50 in series [1] was 0.195 nM. Also, the “Human in vitro Clint (mL/min/g liver)” value in series [2] was found to be 3.3 mL/min/g liver. Also, in series [3], the “attenuation of scratching induced in gerbils by the NK-1 selective agonist GR73632” value is “not able to attenuate the scratching”.

For the molecule `Cc1ccccc1C1C2CC(CN3CCOCC3)C(=O)N2CCN1C(=O)N(C)Cc1cc(C(F)(F)F)cc(C(F)(F)F)c1` (single isomer, unassigned) [Compound 50], the IC50 in series [1] is 0.224 nM. Further, the “Human in vitro Clint (mL/min/g liver)” value in series [2] is 2.9 mL/min/g liver.

With `Cc1ccccc1[C@H]1[C@@H]2CC(CCO)(CCO)C(=O)N2CCN1C(=O)N(C)[C@H](CO)c1cc(C(F)(F)F)cc(C(F)(F)F)c1` [Compound 86, (1S,8aS)-N-((S)-1-(3,5-bis(trifluoromethyl)phenyl)-2-hydroxyethyl)-7,7-bis(2-hydroxyethyl)-N-methyl-6-oxo-1-o-tolylhexahydropyrrolo[1,2-a]pyrazine-2(1H)-carboxamide], the IC50 in series [1] was 0.129 nM. Also, in series [2], the “Human in vitro Clint (mL/min/g liver)” value is recorded as 2.8 mL/min/g liver.

Consider `Cc1ccccc1C1C2CC(CO)C(=O)N2CCN1C(=O)N(C)Cc1cc(C(F)(F)F)cc(C(F)(F)F)c1` (single isomer, unassigned) [Compound 22, N-{[3,5-bis(trifluoromethyl)phenyl]methyl}-7-(hydroxymethyl)-N-methyl-1-(2-methylphenyl)-6-oxo-octahydropyrrolo[1,2-a]piperazine-2-carboxamide], for which the IC50 in series [1] was 0.0513 nM. For the same molecule, the “Human in vitro Clint (mL/min/g liver)” value in series [2] amounted to 0.8 mL/min/g liver.

For the molecule `Cc1ccccc1[C@H]1[C@@H]2CC(CCO)(CCO)C(=O)N2CCN1C(=O)N(C)[C@H](C)c1cc(F)cc(C(F)(F)F)c1` [Compound 93, (1S,8aS)-N-((R)-1-(3-fluoro-5-(trifluoromethyl)phenyl)ethyl)-7,7-bis(2-hydroxyethyl)-N-methyl-6-oxo-1-o-tolylhexahydropyrrolo[1,2-a]pyrazine-2(1H)-carboxamide], the IC50 in series [1] is 0.0794 nM. In series [2], the “Human in vitro Clint (mL/min/g liver)” value turned out to be 10 mL/min/g liver.

Turning to `COc1cc(CN(C)C(=O)N2CCN3C(=O)C(CCO)(CCO)C[C@H]3[C@@H]2c2ccccc2C)cc(C(F)(F)F)c1` [Compound 78, (1S,8aS)-7,7-bis(2-hydroxyethyl)-N-(3-methoxy-5-(trifluoromethyl)benzyl)-N-methyl-6-oxo-1-o-tolylhexahydropyrrolo[1,2-a]pyrazine-2(1H)-carboxamide], the IC50 in series [1] was 0.112 nM. In addition, the “Human in vitro Clint (mL/min/g liver)” value in series [2] was found to be 4.6 mL/min/g liver.

On to `Cc1ccccc1[C@H]1[C@@H]2CC(CCO)(CCO)C(=O)N2CCN1C(=O)N(C)[C@H](C)c1cccc(C(F)(F)F)c1` [Compound 88, (1S,8aS)-7,7-bis(2-hydroxyethyl)-N-methyl-6-oxo-1-o-tolyl-N-((R)-1-(3-(trifluoromethyl)phenyl)ethyl)hexa hydropyrrolo[1,2-a]pyrazine-2(1H)-carboxamide], for which, in series [1], the IC50 was 0.0631 nM. Also, in series [2], the “Human in vitro Clint (mL/min/g liver)” value came to 13 mL/min/g liver.
